How the values were obtained:
[1] = test system: Tg(kdrl:GFP) zebrafish embryos; test: Caudal vein plexus (CVP) formation / venous angiogenesis in Tg(kdrl:GFP) zebrafish embryos; assay type: in vivo; conditions: for anti-angiogenetic activity of aplexone analogs (inhibition of CVP formation / venous angiogenesis): SAR study, compared with aplexone; for ranking in the angiogenesis test: compounds of FIG. 11
Text: Images of GFP expression in Tg(kdrl:GFP) embryos were acquired using a Zeiss SV-11 epifluorescence microscope. Confocal images were acquired using a Carl Zeiss Laser Scanning Systems LSM510 equipped with 20× air, 20× water or 40× water immersion objectives. For single time point confocal images, embryos were anesthetized with 0.01% tricaine and embedded in 1% agarose. When capturing time-lapse confocal movies, embryos were mounted in 3.5% methylcellulose (Sigma-Aldrich) and imaged for 5 hrs on a heated stage at 28.5° C. The images obtained were analyzed using the Zeiss LSM Image Brower version 4 and Image J.
A synthetic chemical library containing 168 compounds (Castellano et al., 2007) and 300 chemicals from Biomol International LP, consisting of 72 ion channel inhibitors (Cat No. 2805), 84 kinase/phosphatase inhibitors (Cat No. 2831), 84 orphan ligands (Cat No. 2825), and 60 endocannabinoids (Cat No. 2801) were screened. The synthetic small molecules were prepared through nucleophilic phosphine catalysis of allenoates (Zhu et al., 2003). Four Tg(kdrl:GFP) embryos were placed into each well of 96-well plates containing a 10 μM solution of each chemical compound dissolved in embryo buffer with 0.1% DMSO. The embryos were raised at 28.5° C. and examined for defects in blood vessel development at 1 and 2 days after treatment. Standard parameters such as numbers of somites and head to body angle were used to determine the stages of zebrafish embryos (Kimmel et al., 1995).
Aplexone treatment described in this study was carried out at a concentration of 10 μM starting at 10 hpf unless otherwise specified.
8 ng tnnt2 MO (Gene Tools) (Sehnert et al., 2002), 3 nl of 4 mM GGTI-2133 (Calbiochem), 3 nl of 5 mM L744,832 (Calbiochem) and 1 nl of 2M mevalonate (Sigma-Aldrich) were injected into 1-2 cell stage embryos.
The library of 168 compounds^24 prepared through the nucleophilic phosphine catalysis of allenes were screened using Tg(kdrl:GFP) zebrafish. Four embryos were placed in each well of 96-well plates containing a 10 uM solution of each chemical compound dissolved in embryo buffer with 0.1% DMSO. The embryos were raised at 28.5° C. and defects in blood vessel development were examined at 1 and 2 days after fertilization.

HMGCR pathway = test: Cholesterol assay in embryo lysate (Amplex Red); assay type: in vivo, zebrafish; conditions: relative to 0.4% DMSO control
Procedure: The yolk was removed from embryos by vortexing in calcium-free Ringer's solution with 1 mM EDTA at 4° C. The embryos were then pelleted and washed with fresh calcium free Ringer's solution 5 times before being resuspended in cholesterol assay reaction buffer and were then lysed by sonication using a Sonifier 450 (Branson). Cholesterol levels in the embryo lysate were measured with an Amplex Red Cholesterol Assay Kit (Invitrogen) and Flex station II (Bucher Biotec). The total protein concentration of the embryo lysate was measured using a DC protein assay (Bio-Rad Laboratories) and SpectraMax plus (Molecular Devices).

SMILES | anti-angiogenetic activity of aplexone analogs (inhibition of CVP formation / venous angiogenesis) [1] | other results
Cc1ccc(S(=O)(=O)N2CC(C(C)O)=CC[C@@H]2c2ccccc2)cc1 (stereo partly shown) [Compound 6] | did not inhibit the CVP formation | –
C=CCCC(=O)C1=CCC(c2ccccc2)N(S(=O)(=O)c2ccc(C)cc2)C1 (stereo not shown) [Compound 8] | showed the bioactivity of aplexone albeit to a lesser extent | –
CC(=O)C1=CCC(c2ccccc2)NC1 (stereo not shown) [Compound 11] | failed to inhibit the formation of CVP | –
CC(=O)C1=CCC(c2ccccc2)N(Cc2ccccc2)C1 (stereo not shown) [Compound 12] | failed to inhibit the formation of CVP | –
CC(=O)C1=CCC(c2ccccc2)N(S(C)(=O)=O)C1 (stereo not shown) [Compound 13] | failed to inhibit the formation of CVP | anti-angiogenetic activity of aplexone analogs (inhibition of CVP formation / venous angiogenesis) ([1]; listed as AP13): normal venous angiogenesis; embryonic cholesterol levels (HMGCR pathway): normal cholesterol levels
CC(=O)C1=CCCN(S(=O)(=O)c2ccc(C)cc2)C1 [Compound 16] | developed a single-lumen caudal vein like aplexone, albeit in lower efficiency | –
CC(=O)C1=CCC(c2ccccc2)N(S(=O)(=O)c2ccccc2)C1 (stereo not shown) [Compound 17] | showed inhibitory activity for venous angiogenesis | –
CC(=O)C1=CCC(c2ccccc2)N(S(=O)(=O)c2ccccc2C)C1 (stereo not shown) [Compound 18] | without showing much decrease in the activity | –
CC(=O)C1=CCC(c2ccccc2)N(S(=O)(=O)c2cccc(C)c2)C1 (stereo not shown) [Compound 19] | without showing much decrease in the activity | –
CC(=O)C1=CCC(c2ccccc2)N(S(=O)(=O)c2ccc(Cl)cc2)C1 (stereo not shown) [Compound 20] | showed inhibitory activity for venous angiogenesis | –
CC(=O)C1=CCC(c2ccc(F)cc2)N(S(=O)(=O)c2ccc(C)cc2)C1 (stereo not shown) [Compound 24] | abolished the biological activity | –
CC(=O)C1=CCC(c2ccc(Cl)cc2)N(S(=O)(=O)c2ccc(C)cc2)C1 (stereo not shown) [Compound 25] | diminished the antiangiogenic activity | –
CC(=O)C1=CCC(c2ccc(C)cc2)N(S(=O)(=O)c2ccc(C)cc2)C1 (stereo not shown) [Compound 26] | active | ranking in the angiogenesis test [1]: most active
CC(=O)C1=CCC(c2ccc(Cl)c(Cl)c2)N(S(=O)(=O)c2ccc(C)cc2)C1 (stereo not shown) [Compound 31] | not active | –
CC(=O)C1=CCC(c2ccc3c(c2)OCO3)N(S(=O)(=O)c2ccc(C)cc2)C1 (stereo not shown) [Compound 32] | not active | –
CC(=O)C1=CCC(c2cccs2)N(S(=O)(=O)c2ccc(C)cc2)C1 (stereo not shown) [Compound 33] | active | ranking in the angiogenesis test [1]: most active
CC(=O)C1=CCC(c2ccco2)N(S(=O)(=O)c2ccc(C)cc2)C1 (stereo not shown) [Compound 34] | inactive | –
CC(=O)C1=CCC(c2ccc(C)o2)N(S(=O)(=O)c2ccc(C)cc2)C1 (stereo not shown) [Compound 35] | inactive | –
CC(=O)C1=CCC(c2cccn2C)N(S(=O)(=O)c2ccc(C)cc2)C1 (stereo not shown) [Compound 36] | inactive | –
CC(=O)C1=CCC(c2cccc3ccccc23)N(S(=O)(=O)c2ccc(C)cc2)C1 (stereo not shown) [Compound 37] | inactive | –
CC(C)C[C@H](NC(=O)c1ccc(NCc2cnc[nH]2)cc1-c1cccc2ccccc12)C(=O)O [GGTI-2133, reference compound] | – | CVP formation ([1]; 3 nl of 4 mM GGTI-2133 injected at 1-2 cell stage, 48 hpf): CVP phenotypes reminiscent of aplexone treatment
CC[C@H](C)[C@@H](CO[C@@H](Cc1ccccc1)C(=O)N[C@@H](CCS(C)(=O)=O)C(=O)OC(C)C)NC[C@@H](N)CS [L744,832, reference compound] | – | CVP formation ([1]; 3 nl of 5 mM L744,832 injected at 1-2 cell stage, 48 hpf): does not affect the formation of the CVP
c1ccc2c(-c3ccncc3)c[nH]c2c1 [Rockout, reference compound] | – | CVP formation ([1]; 50 μM Rockout, 48 hpf): recapitulated the caudal vein phenotype of aplexone treatment
CC(C)c1c(C(=O)Nc2ccccc2)c(-c2ccccc2)c(-c2ccc(F)cc2)n1CC[C@@H](O)C[C@@H](O)CC(=O)O [atorvastatin, reference compound] | – | CVP formation at suboptimal level ([1]; 2 μM single agent): normal CVP; CVP formation ([1]; atorvastatin-treated embryos, from 10 hpf, imaged at 48 hpf): phenotypes similar to those observed in embryos exposed to aplexone; embryonic cholesterol levels (HMGCR pathway): reduce cholesterol level significantly
CC(O)(CCO)CC(=O)O (stereo not shown) [mevalonate, reference compound] | – | effect on aplexone's inhibition of CVP formation ([1]; 1 nl of 2M mevalonate injected, 5 μM aplexone from 2 hpf): blocks the inhibitory effects of aplexone
